According to US8759382B2, “Propargyl-trifluoromethoxy-aminobenzothiazole derivatives, their preparation and use” (Teva Pharmaceutical Industries Ltd., priority 2010, dated 2014):

Tested on: EAE induced in the CSJL/FI strain of mice
Assay: EAE model in CSJL/FI mice (MSCH/CFA-induced), clinical scoring
Format: in vivo
Procedure: EAE induced in the CSJL/FI strain of mice was selected to test the compounds mentioned above, as it is an established EAE model to test the efficacy of candidate molecules for MS treatment.
Disease was induced in all mice by the injection of the encephalitogenic emulsion (MSCH/CFA). Treatment was started from day 1 of the study or at disease onset and was administered every day, orally (BID), from onset of the study.
Healthy, nulliparous, non-pregnant female mice of the CSJL/FI strain obtained from Harlan Animal Breeding Center, Jerusalem, Israel were used in the study. The animals weighed about 17-20 g on arrival, and were approximately 9 weeks of age at initiation of the study. Overtly healthy animals were assigned to study groups arbitrarily before treatment commenced.
The mice were allocated to the following 8 groups of 10 mice each:
Treatments in all groups were administered orally.
The emulsion was made from equal parts of oil (4 mL CFA containing 1.0 mg/ml MT) and liquid portions ([…] MSCH/2.5 mL PBS) in two syringes connected to each other with a Leur lock. The concentration of MSCH in emulsion is 40 mg/mL.
The emulsion was transferred to an insulin syringe before injection. 0.05 ml was injected into the left foot-pad of each mouse.
104 μL Pertussis toxin (200 μg/ml) was added to 25.87 ml PBS to yield 800 ng/ml. The pertussis toxin was administered intravenously on the day of the encephalitogen injection and 48 hours later (160.0 ng/0.2 ml/mouse×2=320 ng/mouse).
Laquinimod was diluted in DDW water to yield 0.1 mg/ml. The solution was stored in an amber colored bottle at 2 to 8° C. The 0.1 mg/ml laquinimod was administered orally, once, daily from the initiation of the study until study termination (Day 23).
Compounds B and C were dissolved in 5% Dextrose to concentrations of 2.5, 5.0 and 10 mg/ml for dose levels of 25, 50 and 100 mg/kg respectively. Test samples were freshly prepared. The 2.5, 5.0 and 10 mg/ml concentrations of Compounds B and C were administered orally, twice daily (BID) from initiation of study until study termination (Day 23) to groups
Scoring of EAE clinical signs were initiated from the 10th day post-EAE induction and were continued daily. The clinical signs were recorded on observation cards according to a grading system described in the table below.
All mice having scores of 1 and above were considered sick.
Animals with a score of 4 for more than two days were given a score of 5 and sacrificed for humane reasons. For calculation purposes, the score (5) of animals that are sacrificed or died will be carried forward (LOCF).
The number of sick animals in each group was summed.
The incidence of disease was calculated as
The percent inhibition according to incidence was calculated as: […]
The number of dead or moribund animals in each group was summed.
The mortality of disease was calculated as
The percent inhibition according to mortality was calculated as
The mean delay in onset of disease expressed in days is calculated by subtracting the mean onset of disease in control group from test group.
The mean maximal score (MMS) of each group was calculated as
The percent inhibition according to MMS was calculated as
The daily scores of each mouse in the test group was summed and the individual mean daily score (IMS) was calculated as
The mean group score (GMS) was calculated as
The percent inhibition was calculated as
This example was performed in the same manner as example 3 with the following groups:
Compound A was prepared for administration by mixing in 0.5% methyl cellulose (0.5% MC) to concentrations of 2.5, 5.0 and 10 mg/ml for dose levels of 25, 50 and 100 mg/kg respectively. The samples were vortexed and sonicated until a clear solution was obtained.
The 2.5, 5.0 and 10 mg/ml concentrations of Compound A were administered orally, twice daily (BID) from initiation of study until study termination (Day 23) at a volume dose of 0.2 ml/mouse.
Compound B was prepared for administration as in Example 3. […]

[1] = Example 3, all dose levels (25, 50, 100 mg/kg BID oral) in 5% dextrose
[2] = Example 3, 1 mg/kg QD oral, Day 0 to 22, percent inhibition vs 5% dextrose negative control

For `C#CCN1CCN(c2nc3ccc(OC(F)(F)F)cc3s2)CC1` [Compound A, 2-(4-(prop-2-ynyl)piperazin-1-yl)-6-(trifluoromethoxy)benzo[d]thiazole], which “protection from disease onset and severity (in words)” value (Example 4, 25, 50 and 100 mg/kg BID oral in 0.5% methyl cellulose, all doses tested) is on record?
Its value is “almost complete protection”.

And the “efficacy compared with Compound B” value (Example 4, Compound A 25-100 mg/kg BID vs Compound B 15-25 mg/kg BID, oral)?
The value was “better than Compound B”.

With `C#CCNCc1nc2ccc(OC(F)(F)F)cc2s1` [Compound B, N-((6-(trifluoromethoxy)benzo[d]thiazol-2-yl)methyl)prop-2-yn-1-amine] as the compound, how does the mortality (Example 3, 25 mg/kg BID oral) read?
The mortality was “no mortality”.

And the “activity based on GMS (EAE inhibition)” value (Example 3, 25 mg/kg BID oral in 5% dextrose, Day 0 to 22)?
The value was 55.9%.

What about the “activity based on GMS (EAE inhibition)” value (Example 3, 100 mg/kg BID oral in 5% dextrose, Day 0 to 22) of the same compound?
The value was 56.4%.

What about the “activity in EAE (in words)” value [1] of the same compound?
The value was “some activity”.

What about the “activity in EAE (in words)” value (Example 4, 15 and 25 mg/kg BID oral, Day 0 to 22) of the same compound?
The value was “moderate activity”.

How did the “activity in EAE (in words)” value [1] turn out when `C#CCN(C)Cc1nc2ccc(OC(F)(F)F)cc2s1` [Compound C, N-methyl-N-((6-(trifluoromethoxy)benzo[d]thiazol-2-yl)methyl)prop-2-yn-1-amine] was run?
The value was “some activity”.

`CCN(C(=O)c1c(O)c2c(Cl)cccc2n(C)c1=O)c1ccccc1` [laquinimod, reference compound] was tested. Which “activity according to GMS (group mean score)” value [2] did it give?
Its value is 96.7%.

What about the “activity according to MMS (mean maximal score)” value [2] of the same compound?
The value was 93.5%.

What about the “activity according to incidence” value [2] of the same compound?
Its value is 80%.
